row,SMILES,melting point [°C]
1,O=[N+]([O-])c1ccc(/N=c2\snc3sc(C4COc5ccccc5O4)nn23)cc1 (stereo not shown) [Compound 1],210 to 211
2,Oc1ccc(/N=c2\snc3sc(C4COc5ccccc5O4)nn23)c(O)c1 (stereo not shown) [Compound 2],201 to 202
3,Oc1cc(O)cc(/N=c2\snc3sc(C4COc5ccccc5O4)nn23)c1 (stereo not shown) [Compound 3],200 to 201
4,Oc1ccc(/N=c2\snc3sc(C4COc5ccccc5O4)nn23)cc1O (stereo not shown) [Compound 5],201 to 202
5,Oc1ccc(O)c(/N=c2\snc3sc(C4COc5ccccc5O4)nn23)c1 (stereo not shown) [Compound 6],199 to 200
6,Oc1cccc(/N=c2\snc3sc(C4COc5ccccc5O4)nn23)c1 (stereo not shown) [Compound 7],191 to 192
7,Oc1cc(O)c(/N=c2\snc3sc(C4COc5ccccc5O4)nn23)c(O)c1 (stereo not shown) [Compound 8],214 to 215
8,CN(C)c1ccc(/N=c2\snc3sc(C4COc5ccccc5O4)nn23)cc1 (stereo not shown) [Compound 9],206 to 207
9,Clc1ccc(/N=c2\snc3sc(C4COc5ccccc5O4)nn23)cc1 (stereo not shown) [Compound 13],204 to 205
10,COC(=O)c1ccc(/N=c2\snc3sc(C4COc5ccccc5O4)nn23)cc1 (stereo not shown) [Compound 14],216 to 217
11,Clc1cccc(/N=c2\snc3sc(C4COc5ccccc5O4)nn23)c1 (stereo not shown) [Compound 17],203 to 204
12,COc1ccc(/N=c2\snc3sc(C4COc5ccccc5O4)nn23)cc1O (stereo not shown) [Compound 20],212 to 213

# Next, values leading:
row,melting point [°C],SMILES
1,209 to 210,O=[N+]([O-])c1ccccc1/N=c1\snc2sc(C3COc4ccccc4O3)nn12 (stereo not shown) [Compound 10]
2,188 to 189,Cc1ccccc1/N=c1\snc2sc(C3COc4ccccc4O3)nn12 (stereo not shown) [Compound 15]
3,187 to 188,Cc1ccc(/N=c2\snc3sc(C4COc5ccccc5O4)nn23)cc1 (stereo not shown) [Compound 16]
4,186 to 187,Cc1cccc(/N=c2\snc3sc(C4COc5ccccc5O4)nn23)c1 (stereo not shown) [Compound 19]
5,198 to 199,Oc1cccc(/N=c2\snc3sc(C4COc5ccccc5O4)nn23)c1O (stereo not shown) [Compound 22]
6,193 to 194,Fc1ccccc1/N=c1\snc2sc(C3COc4ccccc4O3)nn12 (stereo not shown) [Compound 23]
7,194 to 195,Fc1cccc(/N=c2\snc3sc(C4COc5ccccc5O4)nn23)c1 (stereo not shown) [Compound 24]

# Source: article PMC9627624, “Molecular iodine-promoted oxidative cyclization for the synthesis of 1,3,4-thiadiazole-fused- [1,2,4]-thiadiazole incorporating 1,4-benzodioxine moiety as potent inhibitors of α-amylase and α-glucosidase: In vitro and in silico study” (Frontiers in Chemistry, 2022)
